Results reported in patent US5616613A, “Platinum(II) complex and malignant tumor treatment agent” (priority 1994, dated 1997).

How the values were obtained:
testicular carcinoma = details: cited from earlier work; for effectiveness against testicular carcinoma and the like (in words): in vivo
mouse leukemia L1210 = assay: Antitumor activity against L1210 cell-planted mice (T/C value); format: in vivo; details: intraperitoneal, CDF1 mice
Protocol: A portion of 1×10^5 mouse leukemia L1210 cells subcultured in DBA/2 mice were transplanted in the abdominal cavities of CDF1 mice (male, 6 weeks old, 6-10 animals/group). Each of the test compounds was intraperitoneally administered to the mice on the 1st, […] and 9th days after the day of transplantation. Each of the preparations was used after being dissolved in distilled water.
The antitumor activity of the platinum complexes against the L1210 cell-planted mice was evaluated based on the T/C value determined by the following equation. [formula]

[1] = test system: cisplatin-resistant L1210 cells; assay: In vitro cytotoxic effect on cisplatin-resistant mouse leukemia L1210 cells (XTT colorimetric method); format: cell-based; details: read-out: 50% cell growth inhibition concentration (IC50), 37° C., 5 days
Protocol: A test of the in vitro cytotoxic effect of compound 15 and cisplatin on cisplatin-resistant mouse leukemia L1210 cells was conducted in the following manner.
1×10^5 cisplatin-resistant L1210 cells were seeded in a 96-well plate at 100 μl per well. About 100 μl of the drugs at graded dilutions was added to each well. Culturing was then performed at 37° C. for 5 days, and the cells were counted by the XTT colorimetric method.

[2] = prior-art complexes; cited from earlier work

SMILES	effectiveness against testicular carcinoma and the like (in words) (testicular carcinoma)	potency when readministered to recurrent patients (in words) (testicular carcinoma)	T/C (mouse leukemia L1210; 0.25 mg/kg) [%]	T/C (mouse leukemia L1210; 0.5 mg/kg) [%]	T/C (mouse leukemia L1210; 1 mg/kg) [%]	T/C (mouse leukemia L1210; 2 mg/kg) [%]	T/C (mouse leukemia L1210; 4 mg/kg) [%]	IC50 [1] [nM]	stability in aqueous solutions (in words) [2]
N.N.[Cl][Pt][Cl] [Cisplatin, cis-diamminedichloroplatinum(II) complex]	very effective	lowered potency	101	101	106	123	160	10.7	
N.N.O=C([O-])C1(C(=O)[O-])CCC1.[Pt+2] [carboplatin]	very effective	lowered potency							
O=C(O)c1ccc(C(=O)O)c(C(=O)O)c1 [trimellitic acid]									poor stability
